Data reported in paper PMC2364878, “Insecticidal Effects of Organotin(IV) Compounds on Plutella Xylostella (L.) Larvae. II. Inhibitory Potencies Against Acetylcholinesterase and Evidence for Synergism in Tests With Bacillus Thuringiensis(BER.) and Malathion” (Metal-Based Drugs, 1994).
Read-outs that look alike come from different tables or passages of the source.

Tests used:
[1] = system: T1, acetylcholinesterase (AChE), S-strain DBM larvae; test: Ellman colorimetric assay, […] nm, linear regression; assay type: biochemical, Plutella xylostella; conditions: acetylthiocholine iodide 0.5 mM, DTNB 0.3 mM, 0.1 M phosphate pH 7.0, 6 min, read-out: I50
T1 construct: gene ace1; native, 1,500 g supernatant of whole 4th instar larva homogenate, not purified

[2] = system: T2, acetylcholinesterase (AChE), R-strain DBM larvae; test: Ellman colorimetric assay, […] nm, linear regression; assay type: biochemical, Plutella xylostella; conditions: acetylthiocholine iodide 0.5 mM, DTNB 0.3 mM, 0.1 M phosphate pH 7.0, 6 min; above tested range (10^-3 to 10^-8 M); technical grade 90% a.i.; read-out: I50
T2 construct: gene ace1; native, 1,500 g supernatant of whole 4th instar larva homogenate, not purified

Structure (SMILES)	IC50 ([1]; above tested range (10^-3 to 10^-8 M), technical grade 84% a.i.) [µM]	IC50 [2] [µM]	IC50 ([1]; technical grade 90% a.i.) [µM]
CCOC(=O)CC(SP(=S)(OC)OC)C(=O)OCC (stereo not drawn) [Malathion]	33200	–	–
CNC(=O)ON=C(C)SC [Methomyl]	–	2360	351
